# Results published in ChEMBL document CHEMBL3596165, “Synthesis, structure elucidation and identification of antiproliferative activities of a novel class of thiophene bioisosteres bearing the privileged 7,8-dihydroimidazo[2,1-c][1,2,4]triazin-4(6H)-one scaffold” (Bioorg Med Chem, 2015).
# Activity calls are given as the source filed them. The rule behind the calls is not given here.
# Columns and labels:
# Vero [1] = assay: Antiproliferative activity against African green monkey Vero cells at 50 ug/ml after 24 hrs by BrdUrd incorporation assay; format: cell-based; conditions: chlorocebus sabaeus
# [2] = Antiproliferative activity against African green monkey Vero cells at 50 ug/ml after 48 hrs by BrdUrd incorporation assay; format: cell-based; conditions: chlorocebus sabaeus, read-out: GI
# [3] = Antiproliferative activity against African green monkey Vero cells at 50 ug/ml after 72 hrs by BrdUrd incorporation assay; format: cell-based; conditions: chlorocebus sabaeus, read-out: GI
# A549 [4] = assay: Antiproliferative activity against human A549 cells at 50 ug/ml after 24 hrs by BrdUrd incorporation assay; format: functional; conditions: A549, 24 h, read-out: GI
# A549 [5] = assay: Antiproliferative activity against human A549 cells at 50 ug/ml after 48 hrs by BrdUrd incorporation assay; format: functional; conditions: A549, 48 h, read-out: GI
# A549 [6] = assay: Antiproliferative activity against human A549 cells at 50 ug/ml after 72 hrs by BrdUrd incorporation assay; format: functional; conditions: A549, 72 h, read-out: GI
# HeLa [7] = assay: Antiproliferative activity against human HeLa cells at 50 ug/ml after 24 hrs by BrdUrd incorporation assay; format: functional; conditions: read-out: GI
# HeLa [8] = assay: Antiproliferative activity against human HeLa cells at 50 ug/ml after 48 hrs by BrdUrd incorporation assay; format: functional; conditions: read-out: GI
# HeLa [9] = assay: Antiproliferative activity against human HeLa cells at 50 ug/ml after 72 hrs by BrdUrd incorporation assay; format: functional; conditions: read-out: GI
# T47D [10] = assay: Antiproliferative activity against human T47D cells at 50 ug/ml after 24 hrs by BrdUrd incorporation assay; format: functional; conditions: read-out: GI
# T47D [11] = assay: Antiproliferative activity against human T47D cells at 50 ug/ml after 48 hrs by BrdUrd incorporation assay; format: functional; conditions: read-out: GI
# T47D [12] = assay: Antiproliferative activity against human T47D cells at 50 ug/ml after 72 hrs by BrdUrd incorporation assay; format: functional; conditions: read-out: GI
# TOV112D [13] = assay: Antiproliferative activity against human TOV112D cells at 50 ug/ml after 24 hrs by BrdUrd incorporation assay; format: functional; conditions: read-out: GI
# TOV112D [14] = assay: Antiproliferative activity against human TOV112D cells at 50 ug/ml after 48 hrs by BrdUrd incorporation assay; format: functional; conditions: read-out: GI
# TOV112D [15] = assay: Antiproliferative activity against human TOV112D cells at 50 ug/ml after 72 hrs by BrdUrd incorporation assay; format: functional; conditions: read-out: GI
# Vero [16] = assay: Antiproliferative activity against African green monkey Vero cells after 24 hrs by BrdUrd incorporation assay; format: cell-based; conditions: chlorocebus sabaeus
# Vero [17] = assay: Antiproliferative activity against African green monkey Vero cells after 48 hrs by BrdUrd incorporation assay; format: cell-based; conditions: Chlorocebus sabaeus
# Vero [18] = assay: Antiproliferative activity against African green monkey Vero cells after 72 hrs by BrdUrd incorporation assay; format: cell-based; conditions: Chlorocebus sabaeus
# A549 [19] = assay: Antiproliferative activity against human A549 cells after 24 hrs by BrdUrd incorporation assay; format: functional, cell-based; conditions: A549, 24 h
# A549 [20] = assay: Antiproliferative activity against human A549 cells after 48 hrs by BrdUrd incorporation assay; format: functional, cell-based; conditions: A549, 48 h
# A549 [21] = assay: Antiproliferative activity against human A549 cells after 72 hrs by BrdUrd incorporation assay; format: functional, cell-based; conditions: A549, 72 h
# HeLa [22] = assay: Antiproliferative activity against human HeLa cells after 24 hrs by BrdUrd incorporation assay; format: functional, cell-based
# HeLa [23] = assay: Antiproliferative activity against human HeLa cells after 48 hrs by BrdUrd incorporation assay; format: functional, cell-based
# HeLa [24] = assay: Antiproliferative activity against human HeLa cells after 72 hrs by BrdUrd incorporation assay; format: functional, cell-based
# T47D [25] = assay: Antiproliferative activity against human T47D cells after 24 hrs by BrdUrd incorporation assay; format: functional, cell-based
# T47D [26] = assay: Antiproliferative activity against human T47D cells after 48 hrs by BrdUrd incorporation assay; format: functional, cell-based
# T47D [27] = assay: Antiproliferative activity against human T47D cells after 72 hrs by BrdUrd incorporation assay; format: functional, cell-based
# TOV112D [28] = assay: Antiproliferative activity against human TOV112D cells after 24 hrs by BrdUrd incorporation assay; format: functional, cell-based
# TOV112D [29] = assay: Antiproliferative activity against human TOV112D cells after 48 hrs by BrdUrd incorporation assay; format: functional, cell-based
# TOV112D [30] = assay: Antiproliferative activity against human TOV112D cells after 72 hrs by BrdUrd incorporation assay; format: functional, cell-based
# HeLa [31] = assay: Induction of apoptosis in human HeLa cells at 10 ug/ml after 72 hrs by fluorescence microscopic analysis; format: functional
# HeLa [32] = assay: Induction of necrosis in human HeLa cells at 10 ug/ml after 72 hrs by fluorescence microscopic analysis; format: functional
# T47D [33] = assay: Induction of apoptosis in human T47D cells at 10 ug/ml after 72 hrs by fluorescence microscopic analysis; format: functional, cell-based
# T47D [34] = assay: Induction of necrosis in human T47D cells at 10 ug/ml after 72 hrs by fluorescence microscopic analysis; format: functional, cell-based
# Vero [35] = assay: Induction of apoptosis in African green monkey Vero cells at 10 ug/ml after 72 hrs by fluorescence microscopic analysis; format: functional, cell-based; conditions: Chlorocebus sabaeus
# Vero [36] = assay: Induction of necrosis in African green monkey Vero cells at 10 ug/ml after 72 hrs by fluorescence microscopic analysis; format: functional, cell-based; conditions: Chlorocebus sabaeus
# Vero [37] = assay: Antiproliferative activity against African green monkey Vero cells at 100 ug/ml after 24 hrs by BrdUrd incorporation assay; format: cell-based; conditions: chlorocebus sabaeus
# [38] = Antiproliferative activity against African green monkey Vero cells at 100 ug/ml after 48 hrs by BrdUrd incorporation assay; format: cell-based; conditions: chlorocebus sabaeus, read-out: GI
# [39] = Antiproliferative activity against African green monkey Vero cells at 100 ug/ml after 72 hrs by BrdUrd incorporation assay; format: cell-based; conditions: chlorocebus sabaeus, read-out: GI
# A549 [40] = assay: Antiproliferative activity against human A549 cells at 100 ug/ml after 24 hrs by BrdUrd incorporation assay; format: functional; conditions: A549, 24 h, read-out: GI
# A549 [41] = assay: Antiproliferative activity against human A549 cells at 100 ug/ml after 48 hrs by BrdUrd incorporation assay; format: functional; conditions: A549, 48 h, read-out: GI
# A549 [42] = assay: Antiproliferative activity against human A549 cells at 100 ug/ml after 72 hrs by BrdUrd incorporation assay; format: functional; conditions: A549, 72 h, read-out: GI
# HeLa [43] = assay: Antiproliferative activity against human HeLa cells at 100 ug/ml after 24 hrs by BrdUrd incorporation assay; format: functional; conditions: read-out: GI
# HeLa [44] = assay: Antiproliferative activity against human HeLa cells at 100 ug/ml after 48 hrs by BrdUrd incorporation assay; format: functional; conditions: read-out: GI
# HeLa [45] = assay: Antiproliferative activity against human HeLa cells at 100 ug/ml after 72 hrs by BrdUrd incorporation assay; format: functional; conditions: read-out: GI
# T47D [46] = assay: Antiproliferative activity against human T47D cells at 100 ug/ml after 24 hrs by BrdUrd incorporation assay; format: functional; conditions: read-out: GI
# T47D [47] = assay: Antiproliferative activity against human T47D cells at 100 ug/ml after 48 hrs by BrdUrd incorporation assay; format: functional; conditions: read-out: GI
# T47D [48] = assay: Antiproliferative activity against human T47D cells at 100 ug/ml after 72 hrs by BrdUrd incorporation assay; format: functional; conditions: read-out: GI
structure (smiles),measurement,setting,value
O=c1c(-c2cccs2)nnc2n1CCN2c1ccc(Cl)c(Cl)c1,growth inhibition (GI),Vero [1],25%
same,"inhibition at 48 h, 50 ug/ml",[2],50%
same,"inhibition at 72 h, 50 ug/ml",[3],90%
same,inhibition of growth at 50 µg/mL,A549 [4],90%
same,inhibition of growth at 50 µg/mL,A549 [5],100%
same,inhibition of growth at 50 µg/mL,A549 [6],100%
same,inhibition of growth at 50 µg/mL,HeLa [7],50%
same,inhibition of growth at 50 µg/mL,HeLa [8],90%
same,inhibition of growth at 50 µg/mL,HeLa [9],100%
same,inhibition of growth at 50 µg/mL,T47D [10],90%
same,inhibition of growth at 50 µg/mL,T47D [11],100%
same,inhibition of growth at 50 µg/mL,T47D [12],100%
same,inhibition of growth at 50 µg/mL,TOV112D [13],90%
same,inhibition of growth at 50 µg/mL,TOV112D [14],100%
same,inhibition of growth at 50 µg/mL,TOV112D [15],100%
same,IC50,Vero [16],> 140 µM
same,IC50,Vero [17],140 µM
same,IC50,Vero [18],80 µM
same,IC50,A549 [19],80 µM
same,IC50,A549 [20],70 µM
same,IC50,A549 [21],70 µM
same,IC50,HeLa [22],140 µM
same,IC50,HeLa [23],80 µM
same,IC50,HeLa [24],70 µM
same,IC50,T47D [25],80 µM
same,IC50,T47D [26],70 µM
same,IC50,T47D [27],70 µM
same,IC50,TOV112D [28],80 µM
same,IC50,TOV112D [29],70 µM
same,IC50,TOV112D [30],70 µM
same,Activity,HeLa [31],5%
same,Activity,HeLa [32],95%
same,Activity,T47D [33],Active
same,Activity,T47D [34],Active
same,Activity,Vero [35],Active
same,Activity,Vero [36],Active
Nc1nc2[nH]cc(CCc3ccc(C(=O)N[C@@H](CCC(=O)O)C(=O)O)cc3)c2c(=O)[nH]1 [PEMETREXED],growth inhibition (GI),Vero [37],5%
same,"inhibition at 48 h, 100 ug/ml",[38],10%
same,"inhibition at 72 h, 100 ug/ml",[39],20%
same,inhibition of growth at 100 µg/mL,A549 [40],10%
same,inhibition of growth at 100 µg/mL,A549 [41],30%
same,inhibition of growth at 100 µg/mL,A549 [42],50%
same,inhibition of growth at 100 µg/mL,HeLa [43],5%
same,inhibition of growth at 100 µg/mL,HeLa [44],10%
same,inhibition of growth at 100 µg/mL,HeLa [45],20%
same,inhibition of growth at 100 µg/mL,T47D [46],10%
same,inhibition of growth at 100 µg/mL,T47D [47],20%
same,inhibition of growth at 100 µg/mL,T47D [48],30%
